This is an account of results in US7897591B2, “Method of treating fatty liver disease” (priority 2005, dated 2011).

In experiment [1] the test system is SREBP-1c. In words: Western blot of liver SREBP-1c. The format is in vivo, mouse. The note with it: across the treatment groups. As to the method: (§1) Control animals (n=5) received normal chow and water ad libitum. All animals in the experimental groups were fed a fat-free, high carbohydrate liquid diet (HCD) ad libitum placed in one bottle per cage as previously described (3, 62). No additional sources of nutrition or hydration were provided. The HCD liquid solution contained 20% dextrose, a commercial mixture of 2% essential and nonessential amino acids (TrophAmine, B. Braun Medical, Irvine, Calif.), 2 ml trace elements (Trace Elements Injection 4, USP—Pediatric, American Regent Shirley, N.Y.), and 5 ml multivitamins (M.V.I. Pediatric™, Mayne Pharma, Paramus, N.J.). Each liter of HCD contained 30 meq sodium, 20 meq potassium chloride, 15 meq calcium, 10 meq magnesium, and 10 mM phosphate. The bottles were replaced daily with fresh HCD solution. HCD animals (n=5) received HCD only and no additional treatment for 19 days. The HCD+MAR animals (n=15) additionally received 100 mg/kg of Marimastat™ in 0.45% methylcellulose (Sigma-Aldrich Corporation, St. Louis, Mo.) vehicle twice daily via orogastric gavage. The animals were individually weighed every third day and at sacrifice. […] The assay was read at 595 nm and analyzed with Softmax® PRO Software (Molecular Devices Corporation, Sunnyvale, Calif.). 30 ug of protein per sample were analyzed by SDS-PAGE. […]
A general note: A western blot detects proteins with antibodies after separation by electrophoresis.

In experiment [2] the test system is PPAR-α. Description: Immunoprecipitation and SDS-PAGE of PPAR-α phosphorylation. The class given is in vivo, mouse. The settings on record: HCD+MAR group vs control and HCD-only. As to the method: Control animals (n=5) received normal chow and water ad libitum. All animals in the experimental groups were fed a fat-free, high carbohydrate liquid diet (HCD) ad libitum placed in one bottle per cage as previously described (3, 62). No additional sources of nutrition or hydration were provided. The HCD liquid solution contained 20% dextrose, a commercial mixture of 2% essential and nonessential amino acids (TrophAmine, B. Braun Medical, Irvine, Calif.), 2 ml trace elements (Trace Elements Injection 4, USP—Pediatric, American Regent Shirley, N.Y.), and 5 ml multivitamins (M.V.I. Pediatric™, Mayne Pharma, Paramus, N.J.). Each liter of HCD contained 30 meq sodium, 20 meq potassium chloride, 15 meq calcium, 10 meq magnesium, and 10 mM phosphate. The bottles were replaced daily with fresh HCD solution. HCD animals (n=5) received HCD only and no additional treatment for 19 days. The HCD+MAR animals (n=15) additionally received 100 mg/kg of Marimastat™ in 0.45% methylcellulose (Sigma-Aldrich Corporation, St. Louis, Mo.) vehicle twice daily via orogastric gavage. The animals were individually weighed every third day and at sacrifice. Immunoprecipitation was performed according to the Protein-G Immunoprecipitation Kit (Sigma-Aldrich Corporation, St. Louis, Mo.) protocol. […] The sample was then centrifuged and the supernatant was, analyzed by SDS-PAGE as detailed above.

Experiment [3] concerns C57BL/6 mice. In words: Fatty acid analysis of serum and liver lipids (triglycerides, phospholipids) in HCD mouse model. The format is in vivo. Here is the method:
Experiments were performed on 5-6 week-old C57BL/6 mice (Jackson Laboratories, Bar Harbor, Me.). The animals, in groups of five, were housed in a barrier room and were acclimated to their environment for at least 72 hours prior to the initiation of each experiment. Animal protocols complied with the NIH Animal Research Advisory Committee guidelines and were approved by the Children's Hospital Boston Animal Care and Use Committee. Control animals (n=5) received normal chow and water ad libitum. All animals in the experimental groups were fed a fat-free, high carbohydrate liquid diet (HCD) ad libitum placed in one bottle per cage as previously described (3, 62). No additional sources of nutrition or hydration were provided. The HCD liquid solution contained 20% dextrose, a commercial mixture of 2% essential and nonessential amino acids (TrophAmine, B. Braun Medical, Irvine, Calif.), 2 ml trace elements (Trace Elements Injection 4, USP—Pediatric, American Regent Shirley, N.Y.), and 5 ml multivitamins (M.V.I. Pediatric™, Mayne Pharma, Paramus, N.J.). Each liter of HCD contained 30 meq sodium, 20 meq potassium chloride, 15 meq calcium, 10 meq magnesium, and 10 mM phosphate. The bottles were replaced daily with fresh HCD solution. HCD animals (n=5) received HCD only and no additional treatment for 19 days. The HCD+MAR animals (n=15) additionally received 100 mg/kg of Marimastat™ in 0.45% methylcellulose (Sigma-Aldrich Corporation, St. Louis, Mo.) vehicle twice daily via orogastric gavage. The animals were individually weighed every third day and at sacrifice. Fatty acid analysis was conducted as described previously (1, 2, 31). Briefly, lipids were extracted from serum and livers, and then fractionated into triglycerides and phospholipids by solid phase chromatography using an aminopropyl column. After appropriate processing, samples were injected into a Hewlett Packard 5890A gas chromatograph for analysis.

In experiment [4] the test system is PPAR-α. Description: Western blot densitometry of liver PPAR-α. The format is in vivo, mouse. The settings on record: HCD+MAR mice; nuclear + cytosolic summed; mean±SEM; P<0.02 vs HCD-only (11.5±4.4). Here is the method:
as §1

In the case of `CNC(=O)[C@@H](NC(=O)[C@H](CC(C)C)[C@H](O)C(=O)NO)C(C)(C)C` [Marimastat], the SREBP-1c protein level entry in experiment [1] is listed as “unchanged”. The “phosphorylation of PPAR-α” value in experiment [2] is listed as “marked increase”. In addition, the hepatic triglyceride level result in experiment [3] (HCD+MAR vs HCD, remained higher than in controls) is “significantly reduced”. For the same compound, the “serum triglyceride and phospholipids” value in experiment [3] (HCD+MAR, reduced in HCD-only compared to control) is listed as “normalized”. The hepatic phospholipids entry in experiment [3] (among the three groups) was “no significant differences”. In addition, in experiment [4], the “PPAR-α level, Western blot densitometry” value is given as 151.7±3.4.
